Measured values reported in patent US12331027B2, “Herbicidal pyridylethers” (BASF SE, priority 2017, dated 2025).

What was measured:
Assay in all cases: greenhouse post-emergence herbicidal test
Type in all cases: in vivo
[1] = tested on: AMARE (Amaranthus retroflexus); details: post-emergence method, application rate 16 g/ha, scale from 0 to 100; for pest or weed control at 16 g/ha: Amaranthus retroflexus, read-out: herbicidal activity against AMARE
Text: (§1) The seeds of the test plants were sown separately for each species. For the post-emergence treatment, the test plants were first grown to a height of 3 to 15 cm, depending on the plant habit, and only then treated with the active ingredients which had been suspended or emulsified in water. For this purpose, the test plants were either sown directly and grown in the same containers, or they were first grown separately as seedlings and transplanted into the test containers a few days prior to treatment. Depending on the species, the plants were kept at 10-25° C. or 20-35° C., respectively. The test period extended over 2 to 4 weeks. During this time, the plants were tended, and their response to the individual treatments was evaluated. Evaluation was carried out using a scale from 0 to 100. 100 means no emergence of the plants, or complete destruction of at least the aerial moieties, and 0 means no damage, or normal course of growth. A good herbicidal activity is given at values of at least 70 and a very good herbicidal activity is given at values of at least 85. [table]

[2] = tested on: ECHCG (Echinocloa crus-galli); details: post-emergence method, application rate 16 g/ha, scale from 0 to 100
Text: as §1

[3] = tested on: SETVI (Setaria viridis); details: scale from 0 to 100; for herbicidal activity against SETVI: post-emergence method, application rate 16 g/ha; for damages SETVI: post emergence control 7 days after treatment (greenhouse)
Text: as §1

[4] = tested on: CHEAL (Chenopodium album); details: post-emergence method, application rate 16 g/ha, scale from 0 to 100
Text: as §1

[5] = tested on: POLCO (Polygonum convolvulus); details: post-emergence method, application rate 16 g/ha, scale from 0 to 100
Text: as §1

[6] = tested on: ALOMY (Alopecurus myosuroides); details: post emergence control 7 days after treatment (greenhouse), scale from 0 to 100
Text: as §1

[7] = tested on: AVEFA (Avena fatua); details: post emergence control 7 days after treatment (greenhouse), scale from 0 to 100
Text: as §1

SMILES | pest or weed control at 16 g/ha [1] [%] | herbicidal activity against SETVI [3] | herbicidal activity against CHEAL [4] | also measured
CCOC(=O)COc1ccccc1Oc1nc(-n2nc(C)n(C(F)F)c2=O)c(F)cc1Cl [Example 1, Ethyl 2-[2-[[3-chloro-6-[4-(difluoromethyl)-3-methyl-5-oxo-1,2,4-triazol-1-yl]-5-fluoro-2-pyridyl]oxy]phenoxy]acetate] | ≥ 85 |  |  | 
CCOC(=O)COc1ccccc1Oc1nc(-n2nc(C(F)(F)F)n(C)c2=O)c(F)cc1C#N [Example 2, Ethyl 2-[2-[[3-cyano-5-fluoro-6-[4-methyl-5-oxo-3-(trifluoromethyl)-1,2,4-triazol-1-yl]-2-pyridyl]oxy]phenoxy]acetate] | ≥ 85 | very good (a very good herbicidal activity is given at values of at least 85) |  | herbicidal activity against ECHCG [2]: very good (a very good herbicidal activity is given at values of at least 85)
CCOC(=O)COc1ccccc1Oc1nc(-n2nc(C(F)(F)F)n(C)c2=O)c(F)cc1C(N)=S [Example 3, Ethyl 2-[2-[[3-carbamothioyl-5-fluoro-6-[4-methyl-5-oxo-3-(trifluoromethyl)-1,2,4-triazol-1-yl]-2-pyridyl]oxy]phenoxy]acetate] | ≥ 70 |  |  | 
CCOC(=O)COc1ccccc1Oc1nc(-n2nc3n(c2=O)CCCC3)c(Cl)cc1Cl [Example 4, Ethyl 2-[2-[[3,5-dichloro-6-(3-oxo-5,6,7,8-tetrahydro-[1,2,4]triazolo[4,3-a]pyridin-2-yl)-2-pyridyl]oxy]phenoxy]acetate] | ≥ 70 |  |  | 
CCOC(=O)COc1ccccc1Oc1nc(-n2nc(C(C)(C)C)oc2=O)c(Cl)cc1Cl [Example 5, Ethyl 2-[2-[[6-(5-tert-butyl-2-oxo-1,3,4-oxadiazol-3-yl)-3,5-dichloro-2-pyridyl]oxy]phenoxy]acetate] | ≥ 85 |  | very good (a very good herbicidal activity is given at values of at least 85) | 
CCOC(=O)COc1ccccc1Oc1nc(-c2nn(C)c(OC(F)F)c2Cl)c(F)cc1Cl [Example 6, Ethyl 2-[2-[[3-chloro-6-[4-chloro-5-(difluoromethoxy)-1-methyl-pyrazol-3-yl]-5-fluoro-2-pyridyl]oxy]phenoxy]acetate] | ≥ 85 |  |  | 
CCOC(=O)COc1ncccc1Oc1nc(-n2c(=O)n(C)c(=O)n(C)c2=O)c(F)cc1Cl [Example 7, Ethyl 2-[[3-[[3-chloro-6-(3,5-dimethyl-2,4,6-trioxo-1,3,5-triazinan-1-yl)-5-fluoro-2-pyridyl]oxy]-2-pyridyl]oxy]acetate] | ≥ 70 |  |  | 
CCOC(=O)COc1ncccc1Oc1nc(-n2ncc(C(F)(F)F)c(C)c2=O)c(F)cc1Cl [Example 8, Ethyl 2-[[3-[[3-chloro-5-fluoro-6-[5-methyl-6-oxo-4-(trifluoromethyl)pyridazin-1-yl]-2-pyridyl]oxy]-2-pyridyl]oxy]acetate] | ≥ 85 |  |  | 
CCOC(=O)COc1ccccc1Oc1nc(-n2nc(C)n(C(F)F)c2=O)c(F)cc1F [Example 9] |  | good (A good herbicidal activity is given at values of at least 70) | good (A good herbicidal activity is given at values of at least 70) | herbicidal activity against ECHCG [2]: good (A good herbicidal activity is given at values of at least 70)
CCOC(=O)COc1ncccc1Oc1nc(-n2nc(C)n(C(F)F)c2=O)c(F)cc1F [Example 14] |  | very good (a very good herbicidal activity is given at values of at least 85) |  | 
CCOC(=O)COc1ncccc1Oc1nc(-n2nc(C)n(C(F)F)c2=O)ccc1Cl [Example 16] |  |  | very good (a very good herbicidal activity is given at values of at least 85) | herbicidal activity against AMARE [1]: very good (a very good herbicidal activity is given at values of at least 85); herbicidal activity against POLCO [5]: very good (a very good herbicidal activity is given at values of at least 85)
CCOC(=O)COc1ccccc1Oc1nc(-n2nc(C(F)(F)F)n(C)c2=S)c(F)cc1C#N [Example 18] |  | good (A good herbicidal activity is given at values of at least 70) |  | herbicidal activity against AMARE [1]: very good (a very good herbicidal activity is given at values of at least 85)
CCOC(=O)COc1ccccc1Oc1nc(N2C(=O)OC(=C(C)C)C2=O)c(F)cc1Cl [Example 26, Ethyl 2-[2-[[3-chloro-5-fluoro-6-(5-isopropylidene-2,4-dioxo-oxazolidin-3-yl)-2-pyridyl]oxy]phenoxy]acetate] | ≥ 85 | very good (a very good herbicidal activity is given at values of at least 85) | very good (a very good herbicidal activity is given at values of at least 85) | herbicidal activity against POLCO [5]: very good (a very good herbicidal activity is given at values of at least 85)
CCOC(=O)COc1ccccc1Oc1nc(N2C(=O)C3=C(CCCC3)C2=O)c(F)cc1Cl [Example 27, ethyl 2-[2-[[3-chloro-6-(1,3-dioxo-4,5,6,7-tetrahydroisoindol-2-yl)-5-fluoro-2-pyridyl]oxy]phenoxy]acetate] | ≥ 85 | very good (a very good herbicidal activity is given at values of at least 85) | very good (a very good herbicidal activity is given at values of at least 85) | herbicidal activity against ECHCG [2]: very good (a very good herbicidal activity is given at values of at least 85); herbicidal activity against POLCO [5]: very good (a very good herbicidal activity is given at values of at least 85)
COC(=O)COc1ccc(Oc2cc(-n3ncc(C(F)(F)F)c(C)c3=O)c(F)cc2Cl)cc1 [Example A2-11, reference compound] |  |  |  | damages ALOMY ([6]; application rate 2 g/ha): 60; damages ALOMY ([6]; application rate 4 g/ha): 65; damages AVEFA ([7]; application rate 8 g/ha): 70; damages AVEFA ([7]; application rate 16 g/ha): 80; damages SETVI ([3]; application rate 2 g/ha): 80; damages SETVI ([3]; application rate 4 g/ha): 85
COC(=O)COc1ccc(Oc2nc(-n3ncc(C(F)(F)F)c(C)c3=O)c(F)cc2Cl)cc1 [example 28] |  |  |  | damages ALOMY ([6]; application rate 2 g/ha): 70; damages ALOMY ([6]; application rate 4 g/ha): 75; damages AVEFA ([7]; application rate 8 g/ha): 80; damages AVEFA ([7]; application rate 16 g/ha): 98; damages SETVI ([3]; application rate 2 g/ha): 90; damages SETVI ([3]; application rate 4 g/ha): 95
